Data taken from patent US20050054027A1 (priority 2003, published 2005).
Counter-ions that a name gives are not always drawn.

System: TMPRSS6
Assay: Inhibition of TMPRSS6 protease activity (cleavage of fluorogenic substrate Ac-RKFK-acc)
Format: biochemical, human
Details: 2 nM enzyme, 15 min preincubation at room temperature, inhibition constant only in FIG. 4
Method: The putative catalytic domain of TMPRSS6 minus the pro region was cloned into pFastBac1 (Invitrogen) from a human cDNA library. […] The vector also contains a C-terminal 6His tag to facilitate purification and an N-terminal honeybee melittin secretion signal. Recombinant bacmid was produced using Bac-to-Bac transposition technology (Invitrogen). Sf9 cells (Invitrogen) were then transfected with recombinant bacmid to produce rAcNPV.
Protease activity of the purified TMPRSS6 was assessed by monitoring the accumulation of the fluorophore 7-amino-4-carbamoylmethylcoumarin (acc) produced by the cleavage of the tetrapeptide substrate Ac-RKFK-acc in assay buffer (50 mM Tris-Cl pH 7.4, 200 mM NaCl, 2 mM CaCl2, 0.01% Tween 20) at 37 C. Data was collected with a Gemini EM plate reader (Molecular Devices) at λex=380 nm and λem=450 nm.
A 1 mM DMSO solution of camostat mesylate was diluted serially 1:3 in DMSO to a final concentration of 5.6 nM. The TMPRSS6 enzyme was diluted in assay buffer to 2 nM. 1 μl of each camostat dilution was added to 98 μl of the enzyme mixture in a 96 well assay plate (Dynex). The plate was incubated for 15 min at room temperature to allow equilibrium to take place between the enzyme and inhibitor. Afterward, 1 μl of a 1 mM solution of a substrate, Ac-RKFK-acc, was added to each well. […] The inhibition constant was calculated using Prism (GraphPad).

CN(C)C(=O)COC(=O)Cc1ccc(OC(=O)c2ccc(NC(=N)N)cc2)cc1 [camostat mesylate]
inhibition of TMPRSS6 protease activity: inhibited
